Species: Rattus norvegicus
Assay: DrugMatrix - Regimen: Daily Repeat
Type: toxicity, organism-based, Sprague-Dawley
Parameters: regimen Daily Repeat, gender Male, age 6-8 weeks
Conditions: in vivo, ip, 0 mg/kg, route intraperitoneal, dose level Control, vehicle 100 % SALINE; for ABSOLUTE BASOPHIL / ABSOLUTE EOSINOPHIL / ABSOLUTE LYMPHOCYTE / ABSOLUTE MONOCYTE / ABSOLUTE SEGMENTED NEUTROPHIL / BASOPHIL / EOSINOPHIL / ERYTHROCYTE COUNT / HEMATOCRIT / HEMOGLOBIN / LEUKOCYTE COUNT / LYMPHOCYTE / MEAN CORPUSCULAR HEMOGLOBIN / MEAN CORPUSCULAR HEMOGLOBIN CONCENTRATION / MEAN CORPUSCULAR VOLUME / MONOCYTE / NEUTROPHIL / NUCLEATED RED BLOOD CELLS / PLATELET COUNT: tissue Blood; for ALANINE AMINOTRANSFERASE / ALKALINE PHOSPHATASE / ASPARTATE AMINOTRANSFERASE / BLOOD UREA NITROGEN / CARBON DIOXIDE / CHLORIDE / CHOLESTEROL / CREATININE / GLUCOSE / LACTATE DEHYDROGENASE / LIPASE / PHOSPHORUS / POTASSIUM / SODIUM / TOTAL BILIRUBIN / TOTAL PROTEIN / URIC ACID: tissue Plasma

## CC[C@H]1CN2CCc3cc(OC)c(OC)cc3[C@@H]2C[C@@H]1C[C@H]1NCCc2cc(OC)c(OC)cc21 [EMETINE]
72 h, time 3 day
  ABSOLUTE BASOPHIL: 0 CELLS/uL
  ABSOLUTE EOSINOPHIL: 109.67 CELLS/uL
  ABSOLUTE LYMPHOCYTE: 11168.33 CELLS/uL
  ABSOLUTE MONOCYTE: 226.17 CELLS/uL
  ABSOLUTE SEGMENTED NEUTROPHIL: 695.83 CELLS/uL
  BASOPHIL: 0%
  EOSINOPHIL: 0.83%
  ERYTHROCYTE COUNT: 6.2 x10E6/uL
  HEMATOCRIT: 37.68%
  HEMOGLOBIN: 13.67 G/DL
  LEUKOCYTE COUNT: 12.2 x10E3/uL
  LYMPHOCYTE: 91.83%
  MEAN CORPUSCULAR HEMOGLOBIN: 22.08 pg
  MEAN CORPUSCULAR HEMOGLOBIN CONCENTRATION: 36.3 G/DL
  MEAN CORPUSCULAR VOLUME: 60.77 fL
  MONOCYTE: 1.83%
  NEUTROPHIL: 5.5%
  NUCLEATED RED BLOOD CELLS: 0 /100WBC
  PLATELET COUNT: 755.67 x10E3/uL
  ALANINE AMINOTRANSFERASE: 60.83 u/L
  ALKALINE PHOSPHATASE: 392.5 u/L
  ASPARTATE AMINOTRANSFERASE: 97 u/L
  BLOOD UREA NITROGEN: 16.5 mg/dL
  CARBON DIOXIDE: 29.83 mmol/L
  CHLORIDE: 101.83 MEQ/L
  CHOLESTEROL: 72.5 mg/dL
  CREATININE: 0.28 mg/dL
  GLUCOSE: 195.33 mg/dL
  LACTATE DEHYDROGENASE: 240.33 u/L
  LIPASE: 9.67 u/L
  PHOSPHORUS: 12.47 mg/dL
  POTASSIUM: 6.15 MEQ/L
  SODIUM: 145.38 MEQ/L
  TOTAL BILIRUBIN: 0.17 mg/dL
  TOTAL PROTEIN: 6.7 G/DL
  URIC ACID: 2.42 mg/dL
120 h, time 5 day
  ABSOLUTE BASOPHIL: 0 CELLS/uL
  ABSOLUTE EOSINOPHIL: 50 CELLS/uL
  ABSOLUTE LYMPHOCYTE: 12777 CELLS/uL
  ABSOLUTE MONOCYTE: 280.67 CELLS/uL
  ABSOLUTE SEGMENTED NEUTROPHIL: 875.67 CELLS/uL
  BASOPHIL: 0%
  EOSINOPHIL: 0.5%
  ERYTHROCYTE COUNT: 6.42 x10E6/uL
  HEMATOCRIT: 39.13%
  HEMOGLOBIN: 14.17 G/DL
  LEUKOCYTE COUNT: 13.98 x10E3/uL
  LYMPHOCYTE: 90.83%
  MEAN CORPUSCULAR HEMOGLOBIN: 22.1 pg
  MEAN CORPUSCULAR HEMOGLOBIN CONCENTRATION: 36.2 G/DL
  MEAN CORPUSCULAR VOLUME: 61.07 fL
  MONOCYTE: 2%
  NEUTROPHIL: 6.67%
  NUCLEATED RED BLOOD CELLS: 0 /100WBC
  PLATELET COUNT: 838.67 x10E3/uL
  ALANINE AMINOTRANSFERASE: 56.5 u/L
  ALKALINE PHOSPHATASE: 316.5 u/L
  ASPARTATE AMINOTRANSFERASE: 131 u/L
  BLOOD UREA NITROGEN: 14.33 mg/dL
  CARBON DIOXIDE: 29.83 mmol/L
  CHLORIDE: 100.5 MEQ/L
  CHOLESTEROL: 65.83 mg/dL
  CREATININE: 0.23 mg/dL
  GLUCOSE: 268.83 mg/dL
  LACTATE DEHYDROGENASE: 343 u/L
  LIPASE: 9.33 u/L
  PHOSPHORUS: 13.95 mg/dL
  POTASSIUM: 5.37 MEQ/L
  SODIUM: 146.53 MEQ/L
  TOTAL BILIRUBIN: 0.12 mg/dL
  TOTAL PROTEIN: 6.37 G/DL
  URIC ACID: 1.97 mg/dL
[…], time 14 day
  ABSOLUTE BASOPHIL: 0 CELLS/uL
  ABSOLUTE EOSINOPHIL: 111.67 CELLS/uL
  ABSOLUTE LYMPHOCYTE: 12370.33 CELLS/uL
  ABSOLUTE MONOCYTE: 653.33 CELLS/uL
  ABSOLUTE SEGMENTED NEUTROPHIL: 1414.67 CELLS/uL
  BASOPHIL: 0%
  EOSINOPHIL: 0.67%
  ERYTHROCYTE COUNT: 6.03 x10E6/uL
  HEMATOCRIT: 36.65%
  HEMOGLOBIN: 13.4 G/DL
  LEUKOCYTE COUNT: 14.55 x10E3/uL
  LYMPHOCYTE: 85.33%
  MEAN CORPUSCULAR HEMOGLOBIN: 22.27 pg
  MEAN CORPUSCULAR HEMOGLOBIN CONCENTRATION: 36.58 G/DL
  MEAN CORPUSCULAR VOLUME: 60.85 fL
  MONOCYTE: 4.5%
  NEUTROPHIL: 9.5%
  NUCLEATED RED BLOOD CELLS: 0 /100WBC
  PLATELET COUNT: 942 x10E3/uL
  ALANINE AMINOTRANSFERASE: 53.33 u/L
  ALKALINE PHOSPHATASE: 293.67 u/L
  ASPARTATE AMINOTRANSFERASE: 96.83 u/L
  BLOOD UREA NITROGEN: 15.5 mg/dL
  CARBON DIOXIDE: 32.17 mmol/L
  CHLORIDE: 101.33 MEQ/L
  CHOLESTEROL: 64 mg/dL
  CREATININE: 0.25 mg/dL
  GLUCOSE: 178.67 mg/dL
  LACTATE DEHYDROGENASE: 179.5 u/L
  LIPASE: 9.17 u/L
  PHOSPHORUS: 10.88 mg/dL
  POTASSIUM: 5.91 MEQ/L
  SODIUM: 145.68 MEQ/L
  TOTAL BILIRUBIN: 0.2 mg/dL
  TOTAL PROTEIN: 6.38 G/DL
  URIC ACID: 1.12 mg/dL
